Laboratory results reported in US8192962B2, “Processes for detecting toxic substances” (Daikin Industries, Ltd., priority 2001, dated 2012).

System: Transport facilitation protein genes
Test: DNA chip mRNA expression in yeast, transport facilitation protein genes (Table 5)
Format: cell-based, Saccharomyces cerevisiae S288C
Description: Yeast (Saccharomyces cerevisiae S288C (α SUC2mal mel gap2 CUP1)) were incubated at 25° C. on YPD medium (yeast extract 1%, polypepton 2%, glucose 2%). One of toxic chemical substances was added to the cells at logarithmic growth phase, and the cells were further incubated for two hours. Cells were cultured without any chemical substance in the same condition, and were used as control. Concentrations of the chemical substances were defined to inhibit the growth of the yeast but not lead to death.
After completion of the incubation, the culture was centrifuged to collect the cells. To the cells, sodium acetate buffer (50 mM sodium acetate, 10 mM EDTA, 1% SDS) was added, and the mixture was shaken at 65° C. for five minutes, followed by returning to room temperature, and obtaining the supernatant, of which the procedures were repeated two times. To the supernatant, ½ amount of a solution of phenol/chloroform was added, and the mixture was centrifuged to give a supernatant, which was added with an equal amount of chloroform, and the mixture was centrifuged to give a supernatant. To the supernatant, an equal amount of isopropanol containing 0.3 M sodium acetate was added, and the mixture was allowed to stand at room temperature for 30 minutes, after which the mixture was centrifuged to give a sediment of the whole RNAs. Seventy % ethanol was added to the sediment, and the mixture was again centrifuged to give a sediment, which was then dried and dissolved in water. mRNA was isolated from the whole RNAs as followings. In view of the fact that a poly A chain is attached to the 3′ terminus of mRNA, a polynucleotide having a poly T structure which was immobilized on the surface of latex beads was used to trap the mRNA, and then the mRNA was washed and eluted with spine column (Oligotex-dT30<Super>mRNA Purification Kit, Takara). Reverse transcription of the mRNA was conducted with a reverse transcriptase (Super Script II Reverse Transcriptase; catalogue No. 18064-014, GibcoBRL) using fluorescence-labeled nucleotides to give cDNAs that were introduced with Cy3-dUTP or Cy5-dUTP during the reverse transcription.
The labeled cDNAs were dissolved in TE buffer (10mM Tris-HCl/1 mM EDTA, pH8.0), and the solution was dropped on the DNA chip containing the whole genes of yeast (DNA Chip Research Inc. Japan) so that the cDNAs were hybridized on the DNA chip at 65° C. for over 12 hours. The fluoresces intensity of the DNA chip was read with a scanner, and the ratio relative to the fluorescence intensity resulting from the absence of chemical substance was estimated as the following, which is shown in Tables 1 to 9: […]

For `CN(C)C(=S)SSC(=S)N(C)C` [(10), Tetramethylthiuram disulfide], the “The level of expressed mRNA in the presence of chemical substance/The level of expressed mRNA in the absence of chemical substance” value (yeast gene YBL030C) was 0.9, the “The level of expressed mRNA in the presence of chemical substance/The level of expressed mRNA in the absence of chemical substance” value (yeast gene YBL099W) was 0.7 and the “The level of expressed mRNA in the presence of chemical substance/The level of expressed mRNA in the absence of chemical substance” value (yeast gene YBR052C) was 2.5. The “The level of expressed mRNA in the presence of chemical substance/The level of expressed mRNA in the absence of chemical substance” value (yeast gene YBR068C) was 2.5, the “The level of expressed mRNA in the presence of chemical substance/The level of expressed mRNA in the absence of chemical substance” value (yeast gene YBR127C) was 1.3 and the “The level of expressed mRNA in the presence of chemical substance/The level of expressed mRNA in the absence of chemical substance” value (yeast gene YBR132C) was 1.1. For the same molecule, the “The level of expressed mRNA in the presence of chemical substance/The level of expressed mRNA in the absence of chemical substance” value (yeast gene YBR207W) was 2.2, the “The level of expressed mRNA in the presence of chemical substance/The level of expressed mRNA in the absence of chemical substance” value (yeast gene YBR293W) was 2.4 and the “The level of expressed mRNA in the presence of chemical substance/The level of expressed mRNA in the absence of chemical substance” value (yeast gene YBR294W) was 5.2. For the same molecule, the “The level of expressed mRNA in the presence of chemical substance/The level of expressed mRNA in the absence of chemical substance” value (yeast gene YBR295W) was 3.3, the “The level of expressed mRNA in the presence of chemical substance/The level of expressed mRNA in the absence of chemical substance” value (yeast gene YBR298C) was 1.1 and the “The level of expressed mRNA in the presence of chemical substance/The level of expressed mRNA in the absence of chemical substance” value (yeast gene YCL025C) was 0.3. For the same molecule, the “The level of expressed mRNA in the presence of chemical substance/The level of expressed mRNA in the absence of chemical substance” value (yeast gene YCL038C) was 0.9, the “The level of expressed mRNA in the presence of chemical substance/The level of expressed mRNA in the absence of chemical substance” value (yeast gene YCR024C-A) was 0.7 and the “The level of expressed mRNA in the presence of chemical substance/The level of expressed mRNA in the absence of chemical substance” value (yeast gene YCR037C) was 0.6. For the same molecule, the “The level of expressed mRNA in the presence of chemical substance/The level of expressed mRNA in the absence of chemical substance” value (yeast gene YCR098C) was 2.4, the “The level of expressed mRNA in the presence of chemical substance/The level of expressed mRNA in the absence of chemical substance” value (yeast gene YDL128W) was 0.7 and the “The level of expressed mRNA in the presence of chemical substance/The level of expressed mRNA in the absence of chemical substance” value (yeast gene YDL198C) was 2.7. The “The level of expressed mRNA in the presence of chemical substance/The level of expressed mRNA in the absence of chemical substance” value (yeast gene YDL206W) was 1.5, the “The level of expressed mRNA in the presence of chemical substance/The level of expressed mRNA in the absence of chemical substance” value (yeast gene YDL210W) was 1.4 and the “The level of expressed mRNA in the presence of chemical substance/The level of expressed mRNA in the absence of chemical substance” value (yeast gene YDL245C) was 2.8. The “The level of expressed mRNA in the presence of chemical substance/The level of expressed mRNA in the absence of chemical substance” value (yeast gene YDR038C) was 0.9, the “The level of expressed mRNA in the presence of chemical substance/The level of expressed mRNA in the absence of chemical substance” value (yeast gene YDR039C) was 1.0 and the “The level of expressed mRNA in the presence of chemical substance/The level of expressed mRNA in the absence of chemical substance” value (yeast gene YDR086C) was 0.8. The “The level of expressed mRNA in the presence of chemical substance/The level of expressed mRNA in the absence of chemical substance” value (yeast gene YDR270W) was 3.6, the “The level of expressed mRNA in the presence of chemical substance/The level of expressed mRNA in the absence of chemical substance” value (yeast gene YDR298C) was 1.6 and the “The level of expressed mRNA in the presence of chemical substance/The level of expressed mRNA in the absence of chemical substance” value (yeast gene YDR342C) was 2.2. For the same molecule, the “The level of expressed mRNA in the presence of chemical substance/The level of expressed mRNA in the absence of chemical substance” value (yeast gene YDR343C) was 2.1, the “The level of expressed mRNA in the presence of chemical substance/The level of expressed mRNA in the absence of chemical substance” value (yeast gene YDR345C) was 1.1 and the “The level of expressed mRNA in the presence of chemical substance/The level of expressed mRNA in the absence of chemical substance” value (yeast gene YDR387C) was 2.0. The “The level of expressed mRNA in the presence of chemical substance/The level of expressed mRNA in the absence of chemical substance” value (yeast gene YDR497C) was 0.8, the “The level of expressed mRNA in the presence of chemical substance/The level of expressed mRNA in the absence of chemical substance” value (yeast gene YEL027W) was 1.1 and the “The level of expressed mRNA in the presence of chemical substance/The level of expressed mRNA in the absence of chemical substance” value (yeast gene YEL063C) was 1.7. For the same molecule, the “The level of expressed mRNA in the presence of chemical substance/The level of expressed mRNA in the absence of chemical substance” value (yeast gene YEL065W) was 4.9, the “The level of expressed mRNA in the presence of chemical substance/The level of expressed mRNA in the absence of chemical substance” value (yeast gene YER053C) was 3.9 and the “The level of expressed mRNA in the presence of chemical substance/The level of expressed mRNA in the absence of chemical substance” value (yeast gene YER119C) was 1.2. The “The level of expressed mRNA in the presence of chemical substance/The level of expressed mRNA in the absence of chemical substance” value (yeast gene YFL011W) was 1.6, the “The level of expressed mRNA in the presence of chemical substance/The level of expressed mRNA in the absence of chemical substance” value (yeast gene YFL041W) was 5.1 and the “The level of expressed mRNA in the presence of chemical substance/The level of expressed mRNA in the absence of chemical substance” value (yeast gene YFL050C) was 1.6. For the same molecule, the “The level of expressed mRNA in the presence of chemical substance/The level of expressed mRNA in the absence of chemical substance” value (yeast gene YFL054C) was 2.3, the “The level of expressed mRNA in the presence of chemical substance/The level of expressed mRNA in the absence of chemical substance” value (yeast gene YFL055W) was 6.5 and the “The level of expressed mRNA in the presence of chemical substance/The level of expressed mRNA in the absence of chemical substance” value (yeast gene YGL006W) was 1.2. The “The level of expressed mRNA in the presence of chemical substance/The level of expressed mRNA in the absence of chemical substance” value (yeast gene YGL008C) was 0.4, the “The level of expressed mRNA in the presence of chemical substance/The level of expressed mRNA in the absence of chemical substance” value (yeast gene YGL104C) was 2.1 and the “The level of expressed mRNA in the presence of chemical substance/The level of expressed mRNA in the absence of chemical substance” value (yeast gene YGL167C) was 1.1. The “The level of expressed mRNA in the presence of chemical substance/The level of expressed mRNA in the absence of chemical substance” value (yeast gene YGL255W) was 5.0, the “The level of expressed mRNA in the presence of chemical substance/The level of expressed mRNA in the absence of chemical substance” value (yeast gene YGR055W) was 2.4 and the “The level of expressed mRNA in the presence of chemical substance/The level of expressed mRNA in the absence of chemical substance” value (yeast gene YGR065C) was 2.6. For the same molecule, the “The level of expressed mRNA in the presence of chemical substance/The level of expressed mRNA in the absence of chemical substance” value (yeast gene YGR082W) was 0.9, the “The level of expressed mRNA in the presence of chemical substance/The level of expressed mRNA in the absence of chemical substance” value (yeast gene YGR096W) was 0.8 and the “The level of expressed mRNA in the presence of chemical substance/The level of expressed mRNA in the absence of chemical substance” value (yeast gene YGR138C) was 1.0. For the same molecule, the “The level of expressed mRNA in the presence of chemical substance/The level of expressed mRNA in the absence of chemical substance” value (yeast gene YGR191W) was 0.7, the “The level of expressed mRNA in the presence of chemical substance/The level of expressed mRNA in the absence of chemical substance” value (yeast gene YGR197C) was 3.2 and the “The level of expressed mRNA in the presence of chemical substance/The level of expressed mRNA in the absence of chemical substance” value (yeast gene YGR224W) was 0.9. The “The level of expressed mRNA in the presence of chemical substance/The level of expressed mRNA in the absence of chemical substance” value (yeast gene YGR260W) was 0.4.
